Assay results reported in patent publication US8450304B2, “4-azetidinyl-1-heteroaryl-cyclohexanol antagonists of CCR2” (Janssen Pharmaceutica N.V., priority 2008, dated 2013).

Columns and labels:
cell migration = assay: Murine in vivo cell migration assay; design: species or system mice; conditions: 10 mpk, P.O. bid; human MCP-1 on small bowel serosa; 24 hours
Text: (§1) Mouse CCR2 knock-out/human CCR2 knock-in mice were generated using targeted 129Sv/Evbrd embryonic stem cell clones injected into C57BL/6 mice. Expression of the hCCR2 transcript was confirmed by quantitative reverse transcription-polymerase chain reaction performed on spleen and blood total RNA from homozygous hCCR2 knock-in mice. Backcrossing into C57BL/6 genetic background continued to the eighth generation. Transgenic mice were housed in a specific-pathogen-free, temperature-controlled facility that maintained a 12-hour light/12-hour dark cycle. Mice had free access to water and food. Experimental procedures were carried out in accordance with institutional standards for animal care and were approved by the institute's animal care and use committee.
Animals were orally dosed with vehicle or CCR2 antagonists at 3, 10 and 30 mg/kg bid. Animals underwent anesthesia and laparotomy. A distal loop of small bowel (5 cm in length) was gently eventrated onto moist sterile gauze. Synthetic human MCP-1 ([…] sterile PBS) or PBS alone was administered drop-wise onto the serosa of the eventrated loop. A suture knot was placed into the mesentery to mark the terminus of the treated area. Twenty-four hours later, the animal was sacrificed and the segment of bowel plus the adjacent region was removed. The tissue was opened along the mesenteric border, pinned flat and the mucosa removed. […]

[1] = tested on: thioglycollate-induced peritonitis; assay: Thioglycollate-induced peritonitis in mice; assay type: in vivo; conditions: 10 mpk, p.o. bid; 72-hour time point; leukocytes in peritoneal lavage vs vehicle
Text: as §1
Animals were orally dosed with vehicle or CCR2 antagonists at 3, 10, 30 and 100 mg/kg bid). One hour later, the animals were intraperiponeally injected with sterile thioglycollate (25 mL/kg, ip, Sigma) for induction of peritonitis. Animals were orally treated twice daily with vehicle or CCR2 antagonists. At 72-hour time point, perinoteal cavities were lavaged with 10 mL of sterile saline. […] Percent inhibition of the thioglycollate-induced peritonitis was calculated by comparing the change in number of leukocytes of CCR2 antagonist treated mice to the vehicle-treated mice.

[2] = tested on: MCP-1-induced monocyte recruitment to airway; assay: MCP-1-induced monocyte recruitment to airway of mice; assay type: in vivo; conditions: 10 mpk, p.o. bid; 4 μg MCP-1 intranasally; after 48 h
Text: as §1
Animals were orally treated with vehicle or CCR2 antagonists at 3, 10, and 30 mg/kg po bid). One hour later, the animals were intranasally dosed with 4 μg of MCP-1 in sterile saline. The animals were orally treated twice daily with vehicle or CCR2 antagonists. After 48 h, mice were euthanized by intraperitoneal injection of anesthesia solution (Sleepaway-Sodium pentobarbital). […] Percent inhibition was calculated by comparing the change in number of total leukocyte counts (including monocytes/macrophages and lymphocytes) of compound-treated mice to the vehicle-treated mice. […]

[3] = High-fat diet induced obesity and insulin resistance in mice; assay type: in vivo; conditions: 10 mpk, p.o. bid; high-fat diet obese mice; 40 days treatment
Text: as §1, with “Experimental procedures were carried out in accordance with institutional standards for animal care and were approved by the institute's animal care and use committee.” left out
Obesity was induced by a high-fat diet that derived approximately 60% calories from lipids (D-12492; Research Diets Inc.) in animals for 10-24 weeks at age of 7 weeks. […] Body weight and food intake and fasting blood glucose levels were monitored. Body mass was determined by a NMR analyzer (Burker MiniSpec). […] After an intraperitoneal bolus injection of recombinant human insulin (1.5 U/kg), blood glucose concentrations were measured using a Glucometer before and 15, 30, 45, 60, 90 and 120 minutes after injection. […] Blood glucose concentrations were measured before and after 15, 30, 60, 90, 120 minutes after an oral dose of glucose dissolved in water (1 g/kg). Energy expenditure analysis was monitored by a complete laboratory animal monitor system. […]

[4] = tested on: total BAL leukocyte count (and eosinophil count); assay: Mouse model of allergic asthma; assay type: in vivo; conditions: 10 mpk, p.o. bid; OVA-sensitized mice; BAL on day 21
Text: as §1, with “Experimental procedures were carried out in accordance with institutional standards for animal care and were approved by the institute's animal care and use committee.” left out
Animals were sensitized by intraperitoneal injection of 10 μg chicken egg albumin (OVA) absorbed to 1 mg Imject® in 100 μL phosphate-buffered saline (PBS) on days 0 and 5. […] On day 21, 2 hours post the last dose of CCR2 compounds, bronchial reactivity to aerosolized methacholine was measured using a Buxco whole body plethysmograpgh. […] Bronchoalveolar lavage fluid was collected (1 mL) and total cells counted. The numbers of eosinophils, lymphocytes, monocytes and neutrophils were determined using cytospin analysis after Giemsa staining (Hema Tek 2000). Percent inhibition of total BAL leukocyte count (and eosinophil count) was calculated by comparing the compound-treated mice with vehicle-treated mice. […]

## O=C(CNC(=O)c1cccc(C(F)(F)F)c1)NC1CN(C2CCC(O)(c3cncs3)CC2)C1 (centres unmarked) [Example 40, N-{[1-(4-Hydroxy-4-thiazol-5-yl-cyclohexyl)-azetidin-3-ylcarbamoyl]-methyl}-3-trifluoromethyl-benzamide]
Cell migration
  blocking cell migration (efficacious if the inhibition of cell migration reaches 30% compared with vehicle-treated animals): efficacious
[1]
  inhibition of thioglycollate-induced peritonitis: > 50%
[2]
  percent inhibition of total leukocyte counts in BAL: > 50%
[3]
  reduce body weight (percent of weight loss vs vehicle-treated mice): > 8%
[4]
  reduction of cell count (efficacious if the inhibition reaches 30%): efficacious
